From PubChem BioAssay (NCI)
Where “and” joins values, the source holds several entries; their conditions need not be identical. Identical values can stand only once.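 All cell lines were grown in 96-well plates and treated with compound for 48 hours. GI50: concentration for 50% inhibition of growth. Definition used: TGI = concentration required for complete inhibition of growth.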

Assays:
Assay in all cases: NCI-60 cell line screen, 48 h
KM12 colon = tested on: KM12 colon
CCRF-CEM leukemia = tested on: CCRF-CEM leukemia
MCF7 breast = tested on: MCF7 breast
MDA-MB-231 breast = tested on: MDA-MB-231 breast
M14 melanoma = tested on: M14 melanoma
SR leukemia = tested on: SR leukemia
A498 renal = tested on: A498 renal
EKVX NSCLC = tested on: EKVX NSCLC
NCI-H460 lung = tested on: NCI-H460 lung
UO-31 renal = tested on: UO-31 renal
RXF 393 renal = tested on: RXF 393 renal
SW-620 colon = tested on: SW-620 colon
SF-539 CNS = tested on: SF-539 CNS
HT29 colon = tested on: HT29 colon
OVCAR-3 ovarian = tested on: OVCAR-3 ovarian
HCT-116 colon = tested on: HCT-116 colon
HOP-62 NSCLC = tested on: HOP-62 NSCLC
HL-60(TB) leukemia = tested on: HL-60(TB) leukemia
SF-295 CNS = tested on: SF-295 CNS
HOP-92 NSCLC = tested on: HOP-92 NSCLC
CAKI-1 renal = tested on: CAKI-1 renal
RPMI-8226 leukemia = tested on: RPMI-8226 leukemia
T-47D breast = tested on: T-47D breast
OVCAR-5 ovarian = tested on: OVCAR-5 ovarian
NCI-H23 lung = tested on: NCI-H23 lung
UACC-257 melanoma = tested on: UACC-257 melanoma
OVCAR-8 ovarian = tested on: OVCAR-8 ovarian
COLO 205 colon = tested on: COLO 205 colon
ACHN renal = tested on: ACHN renal
HS 578T breast = tested on: HS 578T breast
UACC-62 melanoma = tested on: UACC-62 melanoma
SN12C renal = tested on: SN12C renal
SF-268 CNS = tested on: SF-268 CNS
HCT-15 colon = tested on: HCT-15 colon
DU-145 prostate = tested on: DU-145 prostate
MDA-N = tested on: MDA-N
SK-OV-3 ovarian = tested on: SK-OV-3 ovarian
OVCAR-4 ovarian = tested on: OVCAR-4 ovarian
U251 CNS = tested on: U251 CNS
SK-MEL-5 melanoma = tested on: SK-MEL-5 melanoma
786-0 renal = tested on: 786-0 renal
NCI-H522 lung = tested on: NCI-H522 lung
HCC-2998 colon = tested on: HCC-2998 colon
IGROV1 ovarian = tested on: IGROV1 ovarian
TK-10 renal = tested on: TK-10 renal
NCI-H226 lung = tested on: NCI-H226 lung
MDA-MB-435 = tested on: MDA-MB-435
MOLT-4 leukemia = tested on: MOLT-4 leukemia
NCI/ADR-RES ovarian = tested on: NCI/ADR-RES ovarian
SNB-75 CNS = tested on: SNB-75 CNS
LOX IMVI melanoma = tested on: LOX IMVI melanoma
PC-3 prostate = tested on: PC-3 prostate
K-562 leukemia = tested on: K-562 leukemia
A549 NSCLC = tested on: A549 NSCLC
SK-MEL-2 melanoma = tested on: SK-MEL-2 melanoma
SNB-19 CNS = tested on: SNB-19 CNS
MALME-3M melanoma = tested on: MALME-3M melanoma
SK-MEL-28 melanoma = tested on: SK-MEL-28 melanoma

c1ccc(-c2cc(-c3cccs3)c(-c3cccs3)s2)cc1
TGI (KM12 colon): 32.9 µM | TGI (CCRF-CEM leukemia): 57.9 µM | TGI (MCF7 breast): 41 µM | TGI (MDA-MB-231 breast): > 100 µM | TGI (M14 melanoma): 54.5 µM | TGI (SR leukemia): 52.3 µM | TGI (A498 renal): > 100 µM | TGI (EKVX NSCLC): > 100 µM | TGI (NCI-H460 lung): > 100 µM | TGI (UO-31 renal): 72.3 µM | TGI (RXF 393 renal): 47.3 µM | TGI (SW-620 colon): > 100 µM | TGI (SF-539 CNS): > 100 µM | TGI (HT29 colon): > 100 µM | TGI (OVCAR-3 ovarian): > 100 µM | TGI (HCT-116 colon): > 100 µM | TGI (HOP-62 NSCLC): > 100 µM | TGI (HL-60(TB) leukemia): 88.5 µM | TGI (SF-295 CNS): > 100 µM | TGI (HOP-92 NSCLC): > 100 µM | TGI (CAKI-1 renal): > 100 µM | TGI (RPMI-8226 leukemia): 79 µM | TGI (T-47D breast): 58.4 µM | TGI (OVCAR-5 ovarian): > 100 µM | TGI (NCI-H23 lung): 60.2 µM | TGI (UACC-257 melanoma): > 100 µM | TGI (OVCAR-8 ovarian): > 100 µM | TGI (COLO 205 colon): > 100 µM | TGI (ACHN renal): > 100 µM | TGI (HS 578T breast): > 100 µM | TGI (UACC-62 melanoma): > 100 µM | TGI (SN12C renal): > 100 µM | TGI (SF-268 CNS): > 100 µM | TGI (HCT-15 colon): 70.1 µM | TGI (DU-145 prostate): > 100 µM | TGI (MDA-N): > 100 µM | TGI (SK-OV-3 ovarian): > 100 µM | TGI (OVCAR-4 ovarian): 62.6 µM | TGI (U251 CNS): > 100 µM | TGI (SK-MEL-5 melanoma): > 100 µM | TGI (786-0 renal): > 100 µM | TGI (NCI-H522 lung): 64.8 µM | TGI (HCC-2998 colon): 67.8 µM | TGI (IGROV1 ovarian): > 100 µM | TGI (TK-10 renal): > 100 µM | TGI (NCI-H226 lung): > 100 µM | TGI (MDA-MB-435): 75.5 µM | TGI (MOLT-4 leukemia): 63.1 µM | TGI (NCI/ADR-RES ovarian): > 100 µM | TGI (SNB-75 CNS): > 100 µM

CC(=O)OCC1OC(Sc2nc(-c3ccc(Cl)cc3)c(C#N)c(=O)n2C2OC(COC(C)=O)C(OC(C)=O)C(OC(C)=O)C2OC(C)=O)C(OC(C)=O)C(OC(C)=O)C1OC(C)=O (configuration not stated)
TGI (KM12 colon): > 100 µM and 31 µM | GI50 (LOX IMVI melanoma): 26.9 µM and 8.49 µM | TGI (LOX IMVI melanoma): > 100 µM | TGI (MCF7 breast): > 100 µM and 15.4 µM | TGI (M14 melanoma): > 100 µM | TGI (SR leukemia): 99.8 µM | TGI (EKVX NSCLC): > 100 µM | TGI (PC-3 prostate): > 100 µM and 24.4 µM | GI50 (UO-31 renal): 27.7 µM and 55.9 µM | TGI (UO-31 renal): > 100 µM | TGI (SW-620 colon): > 100 µM | GI50 (K-562 leukemia): 36.6 µM | TGI (K-562 leukemia): > 100 µM | TGI (OVCAR-3 ovarian): > 100 µM and 24.8 µM | TGI (HCT-116 colon): > 100 µM | TGI (HOP-62 NSCLC): > 100 µM and 18.5 µM | TGI (HL-60(TB) leukemia): 8.82 µM | TGI (A549 NSCLC): > 100 µM | GI50 (HOP-92 NSCLC): 2.13 µM | TGI (HOP-92 NSCLC): 9.15 µM | TGI (RPMI-8226 leukemia): > 100 µM | GI50 (T-47D breast): 89.8 µM and 17.7 µM | TGI (T-47D breast): > 100 µM | TGI (OVCAR-5 ovarian): > 100 µM and 21.9 µM | TGI (NCI-H23 lung): > 100 µM and 20 µM | TGI (UACC-257 melanoma): > 100 µM and 10.8 µM | GI50 (OVCAR-8 ovarian): > 100 µM and 17.2 µM | TGI (OVCAR-8 ovarian): > 100 µM | TGI (COLO 205 colon): > 100 µM and 19.3 µM | TGI (HS 578T breast): > 100 µM and 34.3 µM | TGI (HCT-15 colon): > 100 µM and 13.6 µM | GI50 (SK-MEL-2 melanoma): > 100 µM and 17.4 µM | TGI (SK-MEL-2 melanoma): > 100 µM | TGI (DU-145 prostate): > 100 µM and 25.3 µM | TGI (MDA-N): > 100 µM and 13.2 µM | TGI (SK-OV-3 ovarian): > 100 µM and 11.2 µM | TGI (OVCAR-4 ovarian): 12.1 µM | TGI (U251 CNS): > 100 µM | TGI (SK-MEL-5 melanoma): > 100 µM and 12.8 µM | TGI (IGROV1 ovarian): > 100 µM and 33.5 µM | GI50 (TK-10 renal): > 100 µM and 20.2 µM | TGI (TK-10 renal): > 100 µM and 47.8 µM | TGI (NCI-H226 lung): > 100 µM and 12.1 µM | GI50 (SNB-19 CNS): > 100 µM and 10.7 µM | TGI (SNB-19 CNS): > 100 µM and 23.1 µM | TGI (MDA-MB-435): > 100 µM and 19.7 µM | TGI (MOLT-4 leukemia): > 100 µM | GI50 (NCI/ADR-RES ovarian): > 100 µM and 10.2 µM | TGI (NCI/ADR-RES ovarian): > 100 µM

C[n+]1c(-c2ccccc2)cc2/c(=C\c3ccccc3)c3ccccc3n21
TGI (KM12 colon): 2.18 µM | TGI (LOX IMVI melanoma): 2.88 µM | TGI (MCF7 breast): > 32.2 µM | TGI (MDA-MB-231 breast): 3.55 µM | TGI (M14 melanoma): 4.19 µM | TGI (SR leukemia): > 21.4 µM | TGI (A498 renal): 23.1 µM | TGI (EKVX NSCLC): 9.64 µM | TGI (PC-3 prostate): 3.69 µM | TGI (UO-31 renal): 7.81 µM | TGI (RXF 393 renal): 4.07 µM | TGI (SW-620 colon): 3.47 µM | TGI (HT29 colon): 3.22 µM | TGI (K-562 leukemia): > 100 µM | TGI (OVCAR-3 ovarian): 3.04 µM | TGI (HCT-116 colon): 4.91 µM | TGI (HOP-62 NSCLC): 6.9 µM | TGI (HL-60(TB) leukemia): 0.302 µM | TGI (A549 NSCLC): > 36.3 µM | TGI (SF-295 CNS): 76 µM | TGI (HOP-92 NSCLC): 4.93 µM | TGI (CAKI-1 renal): 11.4 µM | TGI (RPMI-8226 leukemia): > 100 µM | TGI (OVCAR-5 ovarian): 13.4 µM | TGI (NCI-H23 lung): 7.2 µM | TGI (MALME-3M melanoma): 2.93 µM | TGI (UACC-257 melanoma): 3.98 µM | TGI (OVCAR-8 ovarian): 4.19 µM | TGI (COLO 205 colon): 1.8 µM | TGI (ACHN renal): 11.8 µM | TGI (HS 578T breast): 0.576 µM | TGI (UACC-62 melanoma): 3.24 µM | TGI (SN12C renal): 3.32 µM | TGI (SF-268 CNS): 2.92 µM | TGI (HCT-15 colon): 11.5 µM | TGI (SK-MEL-2 melanoma): 2.26 µM | TGI (DU-145 prostate): 10.6 µM | TGI (MDA-N): 3.42 µM | TGI (SK-OV-3 ovarian): 17.4 µM | TGI (OVCAR-4 ovarian): 17.2 µM | TGI (U251 CNS): 1.67 µM | TGI (786-0 renal): 2.77 µM | TGI (NCI-H522 lung): 2.01 µM | TGI (HCC-2998 colon): 14.2 µM | TGI (IGROV1 ovarian): 2.64 µM | TGI (TK-10 renal): 14.2 µM | TGI (NCI-H226 lung): 2.01 µM | TGI (SNB-19 CNS): 24 µM | TGI (MDA-MB-435): 2.45 µM | TGI (MOLT-4 leukemia): 7.78 µM | TGI (NCI/ADR-RES ovarian): 71.1 µM | TGI (SNB-75 CNS): 2.05 µM | TGI (SK-MEL-28 melanoma): 2.73 µM
